≈ marks a conversion by molar mass, not a printed value. Structures can show the parent of a compound that is named as a salt. Where two headings read alike, the source gives them in different places.
How the values were obtained:
[1] = Intrinsic dissolution rate of co-compressed pellets, fiber optic automated rotating disk dissolution method; format: physicochemical; settings: for Percent dissolved in 60 minutes at pH 6: pH 6 (0.01 M phosphate) with 0.6% SLS
Experimental: The 0.48 cm ( 3/16 inch) HSS rod was inserted into the die to a distance of 1.9 cm (¾ inch), leaving 0.64 (¼ inch) for placement of 20±1 mg of the drug or drug mixture into the 0.48 cm ( 3/16 inch) diameter hole.
After adding the drug, the punch (or HSS rod) was inserted into the die and the entire die assembly was placed into a 3-bolt holder that was used to hold a 0.64 cm (¼ inch) SS base plate firmly against the powder bed during compression in the die. Compression of the powder was achieved on a Carver press using a stepwise increase in the force up to 4450 newtons (1000 pounds force) (i.e., 255 MPa (37000 psi)) and then a progressive decrease in pressure as described in the following. A force of 1110 newtons (250 pounds force) was applied for approximately 10 seconds and the pressure was removed. This was repeated at 2220 newtons (500 pounds force), 3330 newtons (750 pounds force), and 4450 newtons (1,000 pounds force). The 4450 newtons (1000 pounds force) (i.e., 255 MPa (37000 psi)) was applied again and maintained for 1 minute. The pressure was decreased stepwise by simply lowering the pressure and then holding it at 3330 newtons (750 pounds force) for 10 seconds and repeating this at 2220 newtons (500 pounds force), 1110 newtons (250 pounds force) and, finally, the pressure was removed.
The die and holder was removed from the Carver press and the punch (or HSS rod) was twisted to loosen the rod and to allow the pellet to relax or expand from the backside. After a three minute (minimum) relaxation period, the set-screw on the HSS rod was firmly secured to the die.
The entire punch and die assembly containing the drug pellet with one face of the drug pellet exposed was removed as a unit from the holder and the intrinsic dissolution rate was determined as described below.
The HSS rod in the die containing the drug compact with one face of the drug pellet exposed was attached to an electric motor with a fixed speed of 300 revolutions per minute (rpm). The die was rotated (300 rpm) while the die (containing the drug pellet) was lowered at t=0 into the center of the dissolution vessel consisting of a jacketed 800 mL beaker (Pyrex, No.1000) containing 500 mL of the desired de-gassed (house vacuum, 3 minutes) dissolution medium maintained at 37±0.5° C. The dissolution medium consisted of either dilute HCl (0.01, 0.001 or 0.0001 N HCl) or pH 6, 0.01 M phosphate containing 0.6% SLS (sodium lauryl sulfate). The die was positioned such that the drug compact was approximately 6.4 cm (2.5 inches) from the bottom of the 500 mL dissolution beaker and approximately the same distance from the liquid surface. Continuous monitoring by ultraviolet (UV) spectroscopy was conducted by the fiber optic UV automated dissolution method or samples were taken automatically by the HPLC sampling method as described below.
The Fiber Optic Dissolution System. The fiber optic UV automated dissolution system employed an Ocean Optics PC Model 1000 fiber optic spectrophotometer connected to a 120 mHz Pentium computer. The dissolution process was monitored continuously at 290 nm with the fiber optic probe with 5-10 data points taken per minute. The data was processed automatically with a Visual Basic application program that allowed the data to be collected automatically from the spectrophotometer.
The delavirdine mesylate intrinsic dissolution rate profile was plotted in Excel and the intrinsic dissolution rate was calculated automatically by the program. The dissolution period was usually 15 minutes, but could be as short as approximately 1 minute, or as long as a few hours.
Calculation of the Intrinsic Dissolution Rate.

[2] = Rat oral bioavailability of tipranavir disodium spray dried powders; format: in vivo; settings: plasma, 20 mg/kg
Experimental: HPLC analysis of tipranavir in the rat plasma samples following administration of the various tipranavir disodium spray dried powders was conducted using an RP 8 column (Zorbax, DuPont) with a mobile phase consisting of methanolaqueous 0.05 M formate buffer, pH 4 ([…]).
The rat oral bioavailability of tipranavir disodium spray dried powders as well as the parent tipranavir disodium bulk drug were administered by intubation of the powders using a group of 7-8 rats (250-290 g) obtained from Taconic (Germantown, N.Y.). Intubation was achieved using a 10 cm (4 inch) section of Teflon tubing, […], containing a piece of cheese (American, fat free) inserted into the bottom of the tubing. The desired tipranavir disodium powdered bulk drug was placed into the tube and the tube was inserted into the stomach of the rat. The drug was displaced from the Teflon tubing and into the stomach by passing 2 ml of water through the tubing. The dose was 20 mg/kg in all cases.
The blood samples were processed with precipitation of the proteins with acetonitrile followed by centrifugation. The samples were assayed as described above.

Solubility = format: physicochemical; settings: water, pH 6, water

CC(C)Nc1cccnc1N1CCN(C(=O)c2cc3cc(NS(C)(=O)=O)ccc3[nH]2)CC1 [Delavirdine Mesylate, delavirdine mesylate]
IDR, pH 2 0.01 N HCl ([1]; pH 2 0.01 N HCl, 37° C., 300 rpm, observed): 220 micrograms · cm^−2 · sec^−1
Percent of pellet dissolved at pH 2 ([1]; pH 2 (0.01 N) HCl, 37° C., dissolution then stops): approximately 60%
Percent dissolved in 60 minutes at pH 6 ([1]; 20 mg pellet, listed as Delavirdine mesylate alone): approximately 2%
Percent dissolved in 60 minutes at pH 6 ([1]; 20 mg pellet, listed as pure delavirdine mesylate): less than 1%
IDR, pH 6 with 0.5% SLS ([1]; pH 6 with 0.5% SLS, 37° C., 300 rpm, observed): 2 micrograms · cm^−2 · sec^−1
Percent dissolved in less than 10 minutes at pH 6 ([1]; pH 6 with 0.6% SLS, less than 10 minutes, 20 mg pellet): less than 1%

CCC[C@@]1(CCc2ccccc2)CC(O)=C([C@H](CC)c2cccc(NS(=O)(=O)c3ccc(C(F)(F)F)cn3)c2)C(=O)O1 [Tipranavir Disodium bulk drug, tipranavir disodium]
AUC(0-inf) ([2]; fasted, read-out: AUCInf, fasted): 23.4 µg·h/mL
AUC(0-inf) ([2]; fed, read-out: AUCInf, fed): 45.8 µg·h/mL

CCC[C@@]1(CCc2ccccc2)CC(O)=C([C@H](CC)c2cccc(NS(=O)(=O)c3ccc(C(F)(F)F)cn3)c2)C(=O)O1 [tipranavir]
solubility (Solubility): 5 to 10 µg/mL (≈ 8.3 to 16.6 µM)

Reference: patent US20050042291A1, “Diffusion layer modulated solids” (priority 2003, published 2005)
